Data on 19 compounds can be found in US11976083B2, “Inhibitors of peptidylarginine deiminases” (Gilead Sciences, Inc., priority 2020, dated 2024).

For this assay, the target named is T1, human PAD4 (Homo sapiens, UniProt Q9UM07).
T1 construct: human PAD4 (NM_012387), A2-P663, was PCR amplified; His-SUMO (N, cleaved yes); made in house; host or cells: E. coli BL21(DE3)
T1 sequence (Q9UM07 2-663): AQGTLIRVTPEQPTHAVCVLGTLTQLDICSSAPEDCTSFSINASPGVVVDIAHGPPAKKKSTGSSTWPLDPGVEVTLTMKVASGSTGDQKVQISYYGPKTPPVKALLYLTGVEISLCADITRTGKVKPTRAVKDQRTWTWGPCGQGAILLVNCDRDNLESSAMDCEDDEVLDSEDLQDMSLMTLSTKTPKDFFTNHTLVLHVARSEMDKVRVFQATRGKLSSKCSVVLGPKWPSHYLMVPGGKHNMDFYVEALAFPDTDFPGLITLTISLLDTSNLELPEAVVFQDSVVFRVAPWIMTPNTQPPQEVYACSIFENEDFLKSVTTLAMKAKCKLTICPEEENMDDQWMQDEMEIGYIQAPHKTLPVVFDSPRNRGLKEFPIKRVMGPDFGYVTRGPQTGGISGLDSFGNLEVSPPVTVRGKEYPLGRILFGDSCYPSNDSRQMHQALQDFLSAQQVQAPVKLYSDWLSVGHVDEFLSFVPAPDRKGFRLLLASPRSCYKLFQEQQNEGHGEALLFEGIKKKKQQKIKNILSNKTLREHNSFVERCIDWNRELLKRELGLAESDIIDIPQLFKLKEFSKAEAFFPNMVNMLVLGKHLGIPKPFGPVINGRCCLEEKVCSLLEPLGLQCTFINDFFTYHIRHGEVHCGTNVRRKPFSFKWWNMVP
The experiment in a line: In vitro PAD4 BAEE biochemical assay. As to conditions: BAEE substrate 3 mM, 5 nM PAD4, 2 mM calcium chloride; geometric mean of multiple experiments. Put shortly:
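Ammonia produced by BAEE deimination (3 mM substrate, 2 h, 25 °C) was read as fluorescent isoindole after o-phthalaldehyde/DTT derivatization, ex 405 nm/em 535 nm. Human PAD4 at 5 nM final, 2 mM calcium, pH 7.6 MOPS; compound preincubated 30 min. IC50s, normalized to BB-Cl-Amidine and DMSO controls, were geometric-mean averaged.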
As usually defined, the IC50 is the point on the concentration scale where inhibition reaches its midpoint. `COc1cc(C(=O)N2[C@H]3CC[C@@H]2[C@H](N)C3)cc2nc(-c3cc4ccc5nc4n3CCCCCC[C@@](C)(C(F)(F)F)C(=O)N[C@@H]5C)n(C)c12` [Example 12, (8~{R},11~{R})-17-[5-[(1~{R},2~{R},4~{S})-2-amino-7-azabicyclo[2.2.1]heptane-7-carbonyl]-7-methoxy-1-methyl-benzimidazol-2-yl]-8,11-dimethyl-8-(trifluoromethyl)-1,10,19-triazatricyclo[10.5.2.0^{15,18}]nonadeca-12(19),13,15(18),16-tetraen-9-one]: the IC50 stood at 120 nM.

Turning to `COc1cc(C(=O)N2C[C@H]3CC[C@@H]2[C@@H]3N)cc2nc(-c3cc4ccc5nc4n3CCCCCCC(C)(C)C(=O)N[C@@H]5C)n(C)c12` [Example 13, (11~{R})-17-[5-[(1~{R},4~{R},7~{R})-7-amino-2-azabicyclo[2.2.1]heptane-2-carbonyl]-7-methoxy-1-methyl-benzimidazol-2-yl]-8,8,11-trimethyl-1,10,19-triazatricyclo[10.5.2.0^{15,18}]nonadeca-12(19),13,15(18),16-tetraen-9-one], the concentration for half-maximal inhibition (IC50) turned out to be 121 nM.

As to `COc1cc(C(=O)N2CC[C@@H](OCC(F)F)[C@@H](N)C2)cc2nc(-c3cc4ccc5nc4n3CCCCCCC(C)(C)C(=O)N[C@@H]5C)n(C)c12` [Example 14, (11~{R})-17-[5-[(3~{S),4~{R})-3-amino-4-(2,2-difluoroethoxy)piperidine-1-carbonyl]-7-methoxy-1-methyl-benzimidazol-2-yl]-8,8,11-trimethyl-1,10,19-triazatricyclo[10.5.2.0^{15,18}]nonadeca-12(19),13,15(18),16-tetraen-9-one], the IC50 is 121 nM.

Take `COc1cc(C(=O)N2CCC[C@@H](N)[C@H]2C)cc2nc(-c3cc4ccc5nc4n3CCCCCCC(C)(C)C(=O)N[C@@H]5C)n(C)c12` [Example 15, (11~{R})-17-[5-[(2~{R},3~{R})-3-amino-2-methyl-piperidine-1-carbonyl]-7-methoxy-1-methyl-benzimidazol-2-yl]-8,8,11-trimethyl-1,10,19-triazatricyclo[10.5.2.0^{15,18}]nonadeca-12(19),13,15(18),16-tetraen-9-one]: the IC50 is 60 nM.

As to `COc1cc(C(=O)N2CCC[C@@H](N)C2)cc2nc(-c3cc4ccc5nc4n3CCCCCCC(C)(C)C(=O)N[C@@H]5C)n(C)c12` [Example 16, (11~{R})-17-[5-[(3~{R})-3-aminopiperidine-1-carbonyl]-7-methoxy-1-methyl-benzimidazol-2-yl]-8,8,11-trimethyl-1,10,19-triazatricyclo[10.5.2.0^{15,18}]nonadeca-12(19),13,15(18),16-tetraen-9-one], the IC50 was determined as 67 nM.

On to `COc1cc(C(=O)N2CCC[C@@H](N)C2)cc2nc(-c3cc4ccc5nc4n3CCCCCOCC(C)(C)C(=O)N[C@@H]5C)n(C)c12` [Example 17, (12~{R})-18-[5-[(3~{R})-3-aminopiperidine-1-carbonyl]-7-methoxy-1-methyl-benzimidazol-2-yl]-9,9,12-trimethyl-7-oxa-1,11,20-triazatricyclo[11.5.2.0^{16,19}]icosa-13(20),14,16(19),17-tetraen-10-one], for which the IC50 was found to be 74 nM.

As to `COc1cc(C(=O)N2CCC[C@@H](N)C2)cc2nc(-c3cc4ccc5nc4n3CCCCCOC(C)(C)C(=O)N[C@@H]5C)n(C)c12` [Example 18, (11~{R})-17-[5-[(3~{R})-3-aminopiperidine-1-carbonyl]-7-methoxy-1-methyl-benzimidazol-2-yl]-8,8,11-trimethyl-7-oxa-1,10,19-triazatricyclo[10.5.2.0^{15,18}]nonadeca-12(19),13,15(18),16-tetraen-9-one], the IC50 amounted to 85 nM.

In the case of `COc1cc(C(=O)N[C@H]2CNCC[C@@H]2F)cc2nc(-c3cc4ccc5nc4n3CCCCCOC(C)(C)C(=O)N[C@@H]5C)n(C)c12` [Example 19, ~{N}-[(3~{S},4~{S})-4-fluoro-3-piperidyl]-7-methoxy-1-methyl-2-[(11~{R})-8,8,11-trimethyl-9-oxo-7-oxa-1,10,19-triazatricyclo[10.5.2.0^{15,18}]nonadeca-12(19),13,15(18),16-tetraen-17-yl]benzimidazole-5-carboxamide], the IC50 amounted to 76 nM.

As to `COc1cc(C(=O)N2[C@H]3CC[C@@H]2[C@H](N)C3)cc2nc(-c3cc4ccc5nc4n3CCCCCCC(C)(C)C(=O)N[C@@H]5C)n(C)c12` [Example 20, (11~{R})-17-[5-[(1~{R},2~{R},4~{S})-2-amino-7-azabicyclo[2.2.1]heptane-7-carbonyl]-7-methoxy-1-methyl-benzimidazol-2-yl]-8,8,11-trimethyl-1,10,19-triazatricyclo[10.5.2.0^{15,18}]nonadeca-12(19),13,15(18),16-tetraen-9-one], the IC50 was 62 nM.

In the case of `COc1cc(C(=O)N2[C@H]3CC[C@@H]2[C@H](N)C3)cc2nc(-c3cc4ccc5nc4n3CCCCCOC(C)(C)C(=O)N[C@@H]5C)n(C)c12` [Example 21, (11~{R})-17-[5-[(1~{R},2~{R},4~{S})-2-amino-7-azabicyclo[2.2.1]heptane-7-carbonyl]-7-methoxy-1-methyl-benzimidazol-2-yl]-8,8,11-trimethyl-7-oxa-1,10,19-triazatricyclo[10.5.2.0^{15,18}]nonadeca-12(19),13,15(18),16-tetraen-9-one], the IC50 came to 63 nM.

Regarding `COc1cc(C(=O)N2[C@H]3CC[C@@H]2[C@H](N)C3)cc2nc(-c3cc4ccc5nc4n3CCCCCOCC(C)(C)C(=O)N[C@@H]5C)n(C)c12` [Example 22, (12~{R})-18-[5-[(1~{R},2~{R},4~{S})-2-amino-7-azabicyclo[2.2.1]heptane-7-carbonyl]-7-methoxy-1-methyl-benzimidazol-2-yl]-9,9,12-trimethyl-7-oxa-1,11,20-triazatricyclo[11.5.2.0^{16,19}]icosa-13(20),14,16(19),17-tetraen-10-one], the IC50 turned out to be 62 nM.

Take `COc1cc(C(=O)N2[C@H]3CC[C@@H]2[C@H](N)C3)cc2nc(-c3cc4ccc5nc4n3C/C=C\CCCCS(=O)(=O)N[C@@H]5C)n(C)c12` [Example 23, [(1˜{R},2˜{R},4˜{S})-2-amino-7-azabicyclo[2.2.1]heptan-7-yl]-[7-methoxy-1-methyl-2-[(11˜{R})-11-methyl-9,9-dioxo-9$1^6-thia-1,10,19-triazatricyclo[10.5.2.0^{15,18}]nonadeca-3,12(19),13,15(18),16-pentaen-17-yl]benzimidazol-5-yl]methanone]: the IC50 worked out at 40 nM.

As to `COc1cc(C(=O)N2[C@H]3CC[C@@H]2[C@H](N)C3)cc2nc(-c3cc4ccc5nc4n3CCC/C=C/c3ccccc3C(=O)N[C@@H]5C)n(C)c12` [Example 24, (2~{R},11~{E})-17-[5-[(1~{R},2~{R},4~{S})-2-amino-7-azabicyclo[2.2.1]heptane-7-carbonyl]-7-methoxy-1-methyl-benzimidazol-2-yl]-2-methyl-3,16,22-triazatetracyclo[14.5.2.0^{5,10}.0^{19,23}] tricosa-1(22),5,7,9,11,17,19(23),20-octaen-4-one], the IC50 was found to be 56 nM.

In the case of `COc1cc(C(=O)N2CCC[C@@H](N)C2)cc2nc(-c3cc4ccc5nc4n3CCCCCCc3cn(nn3)C5C)n(C)c12` (stereo partly shown) [Example 25, [(3˜{R})-3-amino-1-piperidyl]-[7-methoxy-1-methyl-2-(2-methyl-3,4,5,13,19-pentazatetracyclo[11.5.2.1^{3,6}.0^{16,20}]henicosa-1(19),4,6(21),14,16(20),17-hexaen-14-yl)benzimidazol-5-yl]methanone], the IC50 came out at 775 nM.

As for `COc1cc(C(=O)N2CCC[C@@H](N)C2)cn2nc(-c3cc4ccc5nc4n3CCCCCCCC(=O)N[C@@H]5C)c(C)c12` [Example 26, (11~{R})-17-[6-[(3~{R})-3-aminopiperidine-1-carbonyl]-4-methoxy-3-methyl-pyrazolo[1,5-a]pyridin-2-yl]-11-methyl-1,10,19-triazatricyclo[10.5.2.0^{15,18}]nonadeca-12(19),13,15(18),16-tetraen-9-one], the IC50 is 86 nM.

For `COc1cc(C(=O)N2CCC[C@@H](N)C2)cn2nc(-c3cc4ccc5nc4n3CCCCCCC(C)(C)C(=O)N[C@@H]5C)c(C)c12` [Example 27, (11~{R})-17-[6-[(3~{R})-3-aminopiperidine-1-carbonyl]-4-methoxy-3-methyl-pyrazolo[1,5-a]pyridin-2-yl]-8,8,11-trimethyl-1,10,19-triazatricyclo[10.5.2.0^{15,18}]nonadeca-12(19),13,15(18),16-tetraen-9-one], the IC50 was 201 nM.

On to `COc1cc(C(=O)N2CCC[C@@H](N)C2)cc2nc(-c3cc4ccc5nc4n3CCCCCc3ccccc3C(=O)N[C@@H]5C)n(C)c12` [Example 28, (2~{R})-17-[5-[(3~{R})-3-aminopiperidine-1-carbonyl]-7-methoxy-1-methyl-benzimidazol-2-yl]-2-methyl-3,16,22-triazatetracyclo[14.5.2.0^{5,10}.0^{19,23}] tricosa-1(22),5,7,9,17,19(23),20-heptaen-4-one], for which the IC50 was determined as 46 nM.

`COc1cc(C(=O)N2CCC[C@@H](N)C2)cc2nc(-c3cc4ccc5nc4n3CCCCCCc3ccccc3C(=O)N[C@@H]5C)n(C)c12` [Example 29, (2~{R})-18-[5-[(3~{R})-3-aminopiperidine-1-carbonyl]-7-methoxy-1-methyl-benzimidazol-2-yl]-2-methyl-3,17,23-triazatetracyclo[15.5.2.0^{5,10}.0^{20,24}] tetracosa-1(23),5,7,9,18,20(24),21-heptaen-4-one]: the IC50 is 70 nM.

`COc1cc(C(=O)N2CCC[C@@H](N)C2)cc2nc(-c3cc4ccc5nc4n3CCCCOc3ccccc3C(=O)N[C@@H]5C)n(C)c12` [Example 30, (2~{R})-17-[5-[(3~{R})-3-aminopiperidine-1-carbonyl]-7-methoxy-1-methyl-benzimidazol-2-yl]-2-methyl-11-oxa-3,16,22-triazatetracyclo[14.5.2.0^{5,10).0^{19,23}] tricosa-1(22),5,7,9,17,19(23),20-heptaen-4-one]: the IC50 stood at 1780 nM.
